Test results reported in patent publication US12077503B2, “Substituted cyclic amides and their use as herbicides” (FMC CORPORATION, priority 2015, dated 2024).

Assays:
Assay type in all cases: in vivo
[1] = tested on: barnyardgrass (Echinochloa crus-galli); assay: Test A preemergence
Method in brief: (§1)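 Each rating is a visual injury score from 0 to 100 given about 10 d after treatment, judged against untreated controls kept alongside in the greenhouse. In loam soil–sand blend, seeds got a preemergence directed soil spray, while postemergence plants were 2 to 10 cm tall at spraying.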

[2] = tested on: ryegrass, Italian (Italian ryegrass, Lolium multiflorum); assay: Test A preemergence
Method in brief: as §1

Kochia (Kochia scoparia) [3] = assay: Test A preemergence
Method in brief: as §1

[4] = tested on: pigweed (Amaranthus retroflexus); assay: Test A preemergence
[5] = tested on: giant foxtail (Setaria faberii); assay: Test A preemergence
Method in brief: as §1

[6] = tested on: ragweed (common ragweed, Ambrosia elatior); assay: Test A preemergence
Method in brief: as §1

[7] = tested on: barnyardgrass (Echinochloa crus-galli); assay: Test A postemergence; conditions: postemergence
Method in brief: as §1

[8] = tested on: ryegrass, Italian (Italian ryegrass, Lolium multiflorum); assay: Test A postemergence; conditions: postemergence
Method in brief: as §1

corn (Zea mays) = assay: Test A postemergence; conditions: postemergence
Method in brief: as §1

[9] = tested on: Galium (catchweed bedstraw, Galium aparine); assay: Test A postemergence; conditions: postemergence
Method in brief: as §1

Kochia (Kochia scoparia) [10] = assay: Test A postemergence; conditions: postemergence
Method in brief: as §1

[11] = tested on: blackgrass (Alopecurus myosuroides); assay: Test A postemergence; conditions: postemergence
Method in brief: as §1

[12] = tested on: pigweed (Amaranthus retroflexus); assay: Test A postemergence; conditions: postemergence
Method in brief: as §1

[13] = tested on: giant foxtail (Setaria faberii); assay: Test A postemergence; conditions: postemergence
Method in brief: as §1

[14] = tested on: wheat (Triticum aestivum); assay: Test A postemergence; conditions: postemergence
Method in brief: as §1

[15] = tested on: ragweed (common ragweed, Ambrosia elatior); assay: Test A postemergence; conditions: postemergence
Method in brief: as §1

[16] = 125 g ai/ha, preemergence, 0 to 100 scale (0 no effect, 100 complete control)
[17] = Preemergence, 500 g ai/ha, visual injury approx. 10 d
[18] = 125 g ai/ha, visual injury rating on 0 to 100 scale (0 no effect, 100 complete control), approx. 10 d
[19] = 500 g ai/ha, 0 to 100 scale, 0 no effect, 100 complete control

## CN1CC(c2cccc(C(F)(F)F)c2)C(C)(C(=O)Nc2ccccc2F)C1=O (centres unmarked) [Compound 428]
[1]; [16]
  Plant response rating, Barnyardgrass: 90
[1]; [17]
  Barnyardgrass plant response rating (0 to 100 scale, 0 is no effect, 100 is complete control): 90
[2]; [16]
  Plant response rating, Ryegrass, Italian: 20
[2]; [17]
  Ryegrass, Italian plant response rating (0 to 100 scale, 0 is no effect, 100 is complete control): 30
Kochia (Kochia scoparia) [3]; [16]
  Plant response rating, Kochia: 50
Kochia (Kochia scoparia) [3]; [17]
  Kochia plant response rating (0 to 100 scale, 0 is no effect, 100 is complete control): 50
[4]; [16]
  Plant response rating, Pigweed: 0
[4]; [17]
  Pigweed plant response rating (0 to 100 scale, 0 is no effect, 100 is complete control): 20
[5]; [16]
  Plant response rating, Foxtail, Giant: 90
[5]; [17]
  Foxtail, Giant plant response rating (0 to 100 scale, 0 is no effect, 100 is complete control): 90
[6]; [16]
  Plant response rating, Ragweed: 0
[6]; [17]
  Ragweed plant response rating (0 to 100 scale, 0 is no effect, 100 is complete control): 0
[7]; [18]
  Barnyardgrass plant response rating: 90
[7]; [19]
  Plant response rating, Barnyardgrass: 90
[8]; [18]
  Ryegrass, Italian plant response rating: 30
[8]; [19]
  Plant response rating, Ryegrass, Italian: 30
Corn (Zea mays); [18]
  Corn plant response rating: 30
Corn (Zea mays); [19]
  Plant response rating, Corn: 60
[9]; [18]
  Galium plant response rating: 50
[9]; [19]
  Plant response rating, Galium: 60
Kochia (Kochia scoparia) [10]; [18]
  Kochia plant response rating: 30
Kochia (Kochia scoparia) [10]; [19]
  Plant response rating, Kochia: 70
[11]; [18]
  Blackgrass plant response rating: 40
[11]; [19]
  Plant response rating, Blackgrass: 70
[12]; [18]
  Pigweed plant response rating: 0
[12]; [19]
  Plant response rating, Pigweed: 20
[13]; [18]
  Foxtail, Giant plant response rating: 80
[13]; [19]
  Plant response rating, Foxtail, Giant: 90
[14]; [18]
  Wheat plant response rating: 30
[14]; [19]
  Plant response rating, Wheat: 60
[15]; [18]
  Ragweed plant response rating: 0
[15]; [19]
  Plant response rating, Ragweed: 0
